These results are taken from patent US12721894B2, “Method and system for applying pulsed electric fields with high uniformity using charged ring structures” (The Phantom Laboratory, Incorporated, priority 2020, dated 2026).

Assay [1] concerns 4T1 murine breast cancer cells. Nature of the assay: Ectopic 4T1 homografts in BALBc mice: tumor size and survival after TOL. It counts as in vivo, mouse. The conditions noted are these: paclitaxel 20 mg/kg i.p. post-inoculation day 5; TOL: digoxin 3 mg/kg x8 + 4x30 min PEF 18 V/m on 2 successive days; n=12; FIG. 7. The procedure: FIG. 4 illustrates the average size of 4T1 homographs seen before and after each single treatment with TOL in which the duration of each of four exposures to PEFs of 18 V/m varied from 5-60 minutes (n=15). […] Further increase in stimulation duration had less of an effect on tumor reduction. Optimum tumor reduction is observed when the mice are exposed to a PEF for 30 minutes, or a range of exceeding 15 minutes and less than 60 minutes.
FIG. 6 depicts in vivo validation of the therapeutic efficacy of pulsed electric fields (PEFs) inducing osmotic lysis in a breast cancer mouse model. Ectopic homografts of 4T1 murine breast cancer cells were established in female, immune competent BALBc mice (n=12). The “TOL” group was injected with digoxin (7 mg/kg) and then exposed to the PEFs generated by a ring device. […] Tumor size was measured daily, beginning on Day 0 (first day of treatment) and every other day after Day 3 until NIH humane endpoint criteria were met for euthanasia.
FIG. 7 depicts in vivo validation of the therapeutic efficacy of pulsed electric fields (PEFs) inducing osmotic lysis in comparison to paclitaxel in a breast cancer mouse model. […] Homografts were measured on post-inoculation day 6 (treatment day 0), and again on post-treatment days 1 and 2 and then every other day until the criteria for humane endpoint euthanasia was met. […]

Assay [2] concerns voltage gated sodium channel (VGSC). In words: Immunohistochemical labeling of VGSC in 4T1 homografts. It counts as in vivo, mouse. The settings on record: 1 and 2 days after treating with paclitaxel; FIG. 8. An excerpt: FIGS. 5A-5C depict the immunohistochemical labeling of voltage gated sodium channel (VGSC) in 4T1 homografts before (FIG. 5A) and after (FIG. 5B) a single 2-day treatment with TOL. Nuclei are counterstained with DRAQ5™ fluorescent probe. […] Low power calibration bar in FIG. 5B is 50 μm and the high power calibration bar in the inset is 25 μm. […] This observation may explain, in part the loss of TOL's efficacy that is observed after the first 2 days of treatment.
FIGS. 8A-8D depicts the immunohistochemical labeling of VGSC in 4T1 homografts before (FIG. 8A), 1 (FIG. 8B) and 2 days (FIG. 8C) after treating with paclitaxel. Nuclei are counterstained with DRAQ5. […] Low power calibration bar in FIG. 8B is 50 μm and the high power calibration bar in the inset in FIG. 8C is 25 μm. […] It is noted that there is a progressive reduction of VGSC labeling but not in the number of cells that express the highest levels of VGSC. […] The decrease in expression of VGSC is likely to contribute in the reduced efficacy of TOL when used concurrently with paclitaxel.

As for `CC(=O)O[C@H]1C(=O)[C@@]2(C)[C@H]([C@H](OC(=O)c3ccccc3)[C@]3(O)C[C@H](OC(=O)[C@H](O)[C@@H](NC(=O)c4ccccc4)c4ccccc4)C(C)=C1C3(C)C)[C@]1(OC(C)=O)CO[C@@H]1C[C@@H]2O` [paclitaxel], the “time from inoculation to humane endpoint euthanasia (survival)” value in assay [1] is “no significant effect on survival over controls”. The VGSC expression entry in assay [2] was “decreases significantly and progressively”.
